Calls of active or inactive are those of the source. The calls are words filed in the database; no cut-off is given here.
How the values were obtained:
Pseudomonas aeruginosa = assay: Inhibition of Pseudomonas aeruginosa His-6-tagged PqsD expressed in Escherichia coli BL21 (lambdaDE3) using anthraniloyl-CoA/beta-ketodecanoic acid at 10 uM as substrate by LC-MS/MS analysis
Escherichia coli = assay: Inhibition of Escherichia coli RNAP assessed as incorporation of [5,6-3H]UTP at 100 uM preincubated for 10 mins followed by DNA template and ATP, CTP, GTP, UTP, [5,6-3H]UTP addition measured after 10 mins by scintillation counting analysis

## O=C(O)c1ccc(NC(=O)c2ccc(-c3ccccc3)cc2)cc1
Pseudomonas aeruginosa
  inhibition: inactive
Escherichia coli
  inhibition: 15%

Reference: ChEMBL document CHEMBL3124812, “Benzamidobenzoic acids as potent PqsD inhibitors for the treatment of Pseudomonas aeruginosa infections” (Eur J Med Chem, 2014)
